In publication doi:10.1101/2021.12.13.472350v1, “An amphipathic and cationic antimicrobial peptide kills colistin resistant Gram-negative pathogens in vivo” (bioRxiv, 2021):

Assays:
[1] = tested on: E. coli ML-35p inner membrane; assay: Permeabilization assay (ONPG / β-galactosidase); type: cell-based; conditions: ChIP 4, 12 and 20 µg/ml for 20, 40 or 60 minutes; chloramphenicol 200 µg/ml pretreated; level higher than toluene or colistin 2 µg/ml
Method: Exponentially growing cells of E. coli ML35 (LacI^- LacY^- LacZ^+) were treated with chloramphenicol (200 µg/ml) to stop protein synthesis. Chloramphenicol treated samples were incubated with ChIP (4, 12 and 20 µg/ml) and colistin (2 µg/ml) for 20, 40 or 60 minutes (12 samples total). 200 µL peptide treated cells were added to 1 ml Z-buffer (0.06M Na2HPO4, 0.04M NaH2PO4, 0.01M KCL, 0.001M MgSO4 and pH = 7) containing 1 mg/ml Ortho-Nitrophenyl-β-galactoside (ONPG). Samples were left at room temperature 15 minutes before stopping color development by addition of 0.5 ml Na2CO3 (1M). Toluene treated cells were included as a control for permeabilized cells. β-galactosidase activity was detected by OD420 measurements.

E. coli ATCC 25922 = assay: MIC in the presence of 50% human serum; type: cell-based; conditions: 50% heat inactivated human male AB serum and 50% MHB-II; crude measure of protein binding/interference; triplicate
Method: The minimum inhibitory concentration (MIC) was determined as previously described ([68]), with minor modifications. Briefly, exponentially growing cultures in MHB-II (37°C) were diluted to an OD600 = 0.002, approximately 1×10^6 colony forming units (CFU) per ml. 100 µl of bacterial suspension was added to polypropylene microtiter plates containing 100 µl of Colistin or ChIP dilutions. Giving a final bacterial inoculum of ∼ 5×10^5 CFU/ml. Colistin sulfate salt (Sigma-Aldrich) and ChIP (Genscript >95% purity) was dissolved in H2O. ChIP MIC in serum was determined in the presence of 50% (heat inactivated) human serum (Sigma) and 50% MHB-II. All experiments were performed in triplicate.

E. coli and A. baumannii = assay: Mouse peritonitis model, overall statement; type: in vivo; conditions: after two-dose treatment
Method: Outbred female NMRI mice (NMRI; weight 26–30 g; Taconic, Denmark) were used throughout the study, as previously described ([69], [70]). […] Colistin is recommended at a dose of 5-10 mg/kg, according to the European Medicines Agency (EMA) ([71]). The animals were kept in Macrolon type III cages in groups of six and allowed free access to feed and water. Experiments were initiated after an acclimatization period of 7 days. Inoculation (bacterial infection) was performed by intraperitoneal (IP) injection of 0.5 ml bacterial suspension containing 2×10^7 CFU/ml and 5% (wt/vol) mucin (Sigma-Aldrich). During experiments, groups of eight mice per cage constituting one experimental unit were randomly assigned to treatment (5 mg/kg ChIP and 10 mg/kg ChIP or colistin 10 mg/kg and 24 mg/kg) or no treatment (vehicle). […] Quantification of bacterial load was performed by spot plating of blood and peritoneal fluid samples from the mice. […] Bacterial counts were recorded after overnight incubation at 37 °C in ambient air. […] The clinical condition of the mice was determined using a self-developed clinical score. For this score, mouse behavior and appearance were observed and evaluated for the parameters piloerection, attitude, locomotion, breathing and curiosity and awarded a score from 0 to 5 by a blinded observer. […] All mice were recorded for score 2.

A. baumannii ATCC 19606 = assay: In vivo sepsis/peritonitis mouse infection model; conditions: NMRI mice infected IP, 10 mg/kg IP at 1 and 3 h
E. coli ESBL20150072 = assay: In vivo sepsis/peritonitis mouse infection model; conditions: NMRI mice infected IP; 10 mg/kg IP at 1 and 3 h; 5 hours post infection
Method: Outbred female NMRI mice (NMRI; weight 26–30 g; Taconic, Denmark) were used throughout the study, as previously described ([69], [70]). […] Colistin is recommended at a dose of 5-10 mg/kg, according to the European Medicines Agency (EMA) ([71]). The animals were kept in Macrolon type III cages in groups of six and allowed free access to feed and water. Experiments were initiated after an acclimatization period of 7 days. Inoculation (bacterial infection) was performed by intraperitoneal (IP) injection of 0.5 ml bacterial suspension containing 2×10^7 CFU/ml and 5% (wt/vol) mucin (Sigma-Aldrich). During experiments, groups of eight mice per cage constituting one experimental unit were randomly assigned to treatment (5 mg/kg ChIP and 10 mg/kg ChIP or colistin 10 mg/kg and 24 mg/kg) or no treatment (vehicle). Peptide and colistin was administered as a single bolus injection IP (volume injected 0.2 ml) at 1 hours and again 3. At various times post-infection, ∼200 µL blood from the jaw/cheek was collected in Eppendorf tubes with anti-coagulate (Sarstedt, Nümbrecht, Germany). Peritoneal lavage was performed by injecting 2.0 ml of sterile physiological saline IP. After 1 minute of abdominal massage, the peritoneum was opened and peritoneal lavage fluid (PLF) withdrawn. PLF was immediately placed in an insulated 4 °C cooling box for transportation and kept on ice at 4 °C. The mouse peritonitis model was repeated in duplicates for E. coli ATCC 25922 and A. baumannii ATCC 19606 nad in triplicate for E. coli ESBL20150072, while only a single experiment was carried out on A. baumannii CR17. Animals were sacrificed at various times prior to and following infection. Data from repeated experiments were pooled for analyses. Quantification of bacterial load was performed by spot plating of blood and peritoneal fluid samples from the mice. Dilution series were made in sterile 0.9% NaCl solution, from which 20 μl was spotted on solid lactose agar plates (Bromthymole Blue plates, SSI Diagnostica). Bacterial counts were recorded after overnight incubation at 37 °C in ambient air. The detection limit was 50 CFU/ml. The clinical condition of the mice was determined using a self-developed clinical score. For this score, mouse behavior and appearance were observed and evaluated for the parameters piloerection, attitude, locomotion, breathing and curiosity and awarded a score from 0 to 5 by a blinded observer. 0 = no clinical signs, 1 = slightly ruffled fur, 2 = ruffled fur and strenuous breathing, 3 = 2 plus lethargy, 4 = 3 plus hunched posture and decreased activity, and 5 = moribund. No significant difference in the clinical score between groups was observed 2 and 4 h post treatment. All mice were recorded for score 2.

For `CC[C@@H](C)[C@@H](NC(=O)[C@@H](CCCCN)NC(=O)[C@@H](CCCCN)NC(=O)[C@@H](Cc1ccccc1)NC(=O)[C@@H](CC(C)C)NC(=O)[C@@H](CCCCN)NC(=O)[C@H](N)CCCCN)C(=O)N[C@H](CC(C)C)C(=O)N[C@H](CCCNC(=N)N)C(=O)N[C@H](Cc1ccc(O)cc1)C(=O)N[C@H](CC(C)C)C(N)=O` [ChIP], the “β-galactosidase activity (ONPG, OD420) of treated cells” value [1] was “increased in a dose dependent manner”, the “MIC in MHB-II + Human serum (50:50) versus MHB-II” value (E. coli ATCC 25922) was “did not change the MIC” and the bacterial reduction intraperitoneal (E. coli and A. baumannii) was “up to 5 logs”. For the same compound, the “reduction of peritoneal bacterial titers relative to saline control” value (A. baumannii ATCC 19606; after 5 hours) was 3-4 log, the peritoneal bacterial titers (A. baumannii ATCC 19606; after 5 hours, saline control around 1×10^8 CFU/ml) was 1×10^3-1×10^4 CFU/ml and the bacterial blood titers (A. baumannii ATCC 19606; detection limit 50 CFU/ml) was “reduce CFU/ml to the detection limit”. For the same compound, the peritoneal titers (E. coli ESBL20150072) was 1×10^4 CFU/ml and the “reduction in peritoneal titers compared to vehicle (1×10^8 CFU/ml)” value (E. coli ESBL20150072) was 3 logs.
